Measurements published in patent US8461328B2, “Tricyclic heterocyclic compounds, compositions and methods of use thereof” (Genentech, Inc., priority 2010, dated 2013).
pKi: −log10 of the molar value.

Experiments:
Format in all cases: biochemical
JAK2 = biological target: T1, JAK2 (Homo sapiens, UniProt O60674); test: JAK2 inhibition (Table 4); conditions: read-out: JAK2 Ki
T1 construct: made in house; host or cells: SF9 insect cells (baculovirus)

JAK3 = biological target: T2, JAK3 (Homo sapiens, UniProt P52333); test: JAK3 inhibition (Table 4); conditions: read-out: JAK3 Ki
T2 construct: made in house; host or cells: SF9 insect cells (baculovirus)

TYK2 = biological target: T3, TYK2 (Homo sapiens, UniProt P29597); test: TYK2 inhibition (Table 4)
T3 construct: made in house; host or cells: SF9 insect cells (baculovirus)
T3 sequence (P29597 873-1187): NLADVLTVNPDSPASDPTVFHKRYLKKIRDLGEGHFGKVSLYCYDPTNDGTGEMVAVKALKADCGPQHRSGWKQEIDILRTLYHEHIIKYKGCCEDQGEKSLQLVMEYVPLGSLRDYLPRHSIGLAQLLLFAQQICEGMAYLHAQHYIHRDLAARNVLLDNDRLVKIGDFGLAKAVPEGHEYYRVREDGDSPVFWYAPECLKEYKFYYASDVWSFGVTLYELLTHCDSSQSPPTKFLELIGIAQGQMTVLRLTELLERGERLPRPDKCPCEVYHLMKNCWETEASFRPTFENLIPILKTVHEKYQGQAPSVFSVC

JAK1 = biological target: T4, JAK1 (Homo sapiens, UniProt P23458); test: JAK1 inhibition (Table 4); conditions: read-out: JAK1 Ki
T4 construct: made in house; host or cells: SF9 insect cells (baculovirus)
T4 sequence (P23458 852-1154): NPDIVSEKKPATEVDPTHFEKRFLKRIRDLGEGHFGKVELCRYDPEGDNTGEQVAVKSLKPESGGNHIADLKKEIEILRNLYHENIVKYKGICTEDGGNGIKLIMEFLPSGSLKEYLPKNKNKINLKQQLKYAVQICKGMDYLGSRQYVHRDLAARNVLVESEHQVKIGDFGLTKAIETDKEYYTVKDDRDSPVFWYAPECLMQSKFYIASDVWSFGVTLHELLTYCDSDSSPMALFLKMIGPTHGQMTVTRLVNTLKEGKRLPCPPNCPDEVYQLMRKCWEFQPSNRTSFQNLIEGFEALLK

T2 sequence (P52333 783-1124): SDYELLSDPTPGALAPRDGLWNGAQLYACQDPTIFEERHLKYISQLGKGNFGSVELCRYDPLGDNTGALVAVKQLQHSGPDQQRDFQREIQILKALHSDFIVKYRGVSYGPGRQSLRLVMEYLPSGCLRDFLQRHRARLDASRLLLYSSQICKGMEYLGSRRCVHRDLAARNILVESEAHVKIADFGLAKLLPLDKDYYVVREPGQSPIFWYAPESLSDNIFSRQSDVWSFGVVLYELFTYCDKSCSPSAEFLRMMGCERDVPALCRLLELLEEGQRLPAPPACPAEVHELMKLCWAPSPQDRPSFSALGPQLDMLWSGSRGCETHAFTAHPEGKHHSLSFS
T1 sequence (O60674 812-1132): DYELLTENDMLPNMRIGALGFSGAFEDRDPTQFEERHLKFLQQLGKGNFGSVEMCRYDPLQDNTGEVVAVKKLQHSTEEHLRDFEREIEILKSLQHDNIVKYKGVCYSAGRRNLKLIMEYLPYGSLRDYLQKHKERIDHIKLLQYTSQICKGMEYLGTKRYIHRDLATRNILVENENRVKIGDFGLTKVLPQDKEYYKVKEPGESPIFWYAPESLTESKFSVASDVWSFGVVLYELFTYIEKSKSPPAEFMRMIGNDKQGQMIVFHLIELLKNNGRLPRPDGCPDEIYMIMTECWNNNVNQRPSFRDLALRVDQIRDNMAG

Row | Structure (SMILES) | pKi (JAK2) | pKi (JAK3) | pKi (TYK2) | pKi (JAK1)
1 | CCN1CCC(n2c(CCNC(=O)OC)nc3cnc4[nH]ccc4c32)C(F)(F)C1 (stereo not shown) [Example 908, {2-[1-(1-Ethyl-3,3-difluoro-piperidin-4-yl)-1,6-dihydro-1,3,5,6-tetraaza-as-indacen-2-yl]-ethyl}-carbamic acid methyl ester] | 7.43 | 7.79 | 6.55 | 8.22
2 | CCN1CC[C@@H](n2c(CNS(C)(=O)=O)nc3cnc4[nH]ccc4c32)[C@@H](F)C1 [Example 909, N-[1-((3S,4R)-1-Ethyl-3-fluoro-piperidin-4-yl)-1,6-dihydro-1,3,5,6-tetraaza-as-indacen-2-ylmethyl]-methanesulfonamide] | 6.89 | 6.67 | 6.45 | 8.15
3 | Cc1nc2cnc3[nH]ccc3c2n1C1CNCCOC1 (stereo not shown) [Example 910, 2-Methyl-1-[1,4]oxazepan-6-yl-1,6-dihydro-1,3,5,6-tetraaza-as-indacene] | 6.67 | 6.49 | 6.67 | 7.30
4 | Cc1cc(CN2CCC(n3c(C(C)O)nc4cnc5[nH]ccc5c43)C(F)C2)no1 (stereo not shown) [Example 911, 1-{1-[3-Fluoro-1-(5-methyl-isoxazol-3-ylmethyl)-piperidin-4-yl]-1,6-dihydro-1,3,5,6-tetraaza-as-indacen-2-yl}-ethanol] | 7.42 | 8.24 | 6.75 | 8.48
5 | Cc1noc(CN2CCC(n3c(C(C)O)nc4cnc5[nH]ccc5c43)C(F)C2)n1 (stereo not shown) [Example 912, 1-{1-[3-Fluoro-1-(3-methyl-[1,2,4]oxadiazol-5-ylmethyl)-piperidin-4-yl]-1,6-dihydro-1,3,5,6-tetraaza-as-indacen-2-yl}-ethanol] | 7.37 | 8.11 | 6.75 | 8.47
6 | CCN1CCC(n2c(CNS(C)(=O)=O)nc3cnc4[nH]ccc4c32)C(F)(F)C1 (stereo not shown) [Example 915, N-[1-(1-Ethyl-3,3-difluoro-piperidin-4-yl)-1,6-dihydro-1,3,5,6-tetraaza-as-indacen-2-ylmethyl]-methanesulfonamide] | 7.55 | 7.65 | 7.00 | 8.26
7 | C[C@@H](O)c1nc2cnc3[nH]ccc3c2n1C1CCN(CC(F)F)CC1 [Example 916, (R)-1-{1-[1-(2,2-Difluoro-ethyl)-piperidin-4-yl]-1,6-dihydro-1,3,5,6-tetraaza-as-indacen-2-yl}-ethanol] | 7.28 | 7.20 | 7.11 | 8.17
8 | CC(O)c1nc2cnc3[nH]ccc3c2n1C1CC2CCC(C1)N2 (stereo not shown) [Example 919, 1-[1-(8-Aza-bicyclo[3.2.1]oct-3-yl)-1,6-dihydro-1,3,5,6-tetraaza-as-indacen-2-yl]-ethanol] | 6.36 | 6.32 | 6.58 | 7.97
9 | CC(=O)NCc1nc2cnc3[nH]ccc3c2n1C1CCN(CC(F)(F)F)CC1 [Example 920, N-{1-[1-(2,2,2-Trifluoro-ethyl)-piperidin-4-yl]-1,6-dihydro-1,3,5,6-tetraaza-as-indacen-2-ylmethyl}-acetamide] | 7.03 | 7.06 | 6.74 | 7.89
10 | CC(=O)NCc1nc2cnc3[nH]ccc3c2n1C1CCN(CCF)CC1 [Example 921, N-{1-[1-(2-Fluoro-ethyl)-piperidin-4-yl]-1,6-dihydro-1,3,5,6-tetraaza-as-indacen-2-ylmethyl}-acetamide] | 6.93 | 7.15 | 6.72 | 7.88
11 | O=S1(=O)CCCN1CCc1nc2cnc3[nH]ccc3c2n1C1CCCCC1 [Example 922, 1-Cyclohyl-2-[2-(1,1-dioxo-1-isothiazolidin-2-yl)-ethyl]-1,6-dihydro-1,3,5,6-tetraaza-as-indacene] | 7.30 | 7.29 | 6.84 | 7.88
12 | C[C@@H](O)c1nc2cnc3[nH]ccc3c2n1C1CCN(Cc2ncco2)CC1 [Example 923, (R)-1-[1-(1-Oxazol-2-ylmethyl-piperidin-4-yl)-1,6-dihydro-1,3,5,6-tetraaza-as-indacen-2-yl]-ethanol] | 6.82 | 7.43 | 6.44 | 7.77
13 | O=C(NCc1nc2cnc3[nH]ccc3c2n1C1CCCCC1)C1CCC1 [Example 924, Cyclobutanecarboxylic acid (1-cyclohyl-1,6-dihydro-1,3,5,6-tetraaza-as-indacen-2-ylmethyl)-amide] | 7.02 | 7.27 | 7.14 | 7.75
14 | CS(=O)(=O)NCc1nc2cnc3[nH]ccc3c2n1C1CC2CCC1O2 (stereo not shown) [Example 925, N-[1-(7-Oxa-bicyclo[2.2.1]hept-2-yl)-1,6-dihydro-1,3,5,6-tetraaza-as-indacen-2-ylmethyl]-methanesulfonamide] | 6.60 | 6.26 | 6.47 | 7.52
15 | C[C@@H](O)c1nc2cnc3[nH]ccc3c2n1[C@H]1CCNC1 [Example 926, (R)-1-((S)-1-Pyrrolidin-3-yl-1,6-dihydro-1,3,5,6-tetraaza-as-indacen-2-yl)-ethanol] | 5.61 | 5.94 | 5.80 | 7.45
16 | CCOC(=O)N1CCC(n2c([C@@H](C)O)nc3cnc4[nH]ccc4c32)CC1 [Example 927] | 6.21 | 6.42 | 6.15 | 6.75
17 | Cc1nc2cnc3[nH]ccc3c2n1C1CN2CCC1CC2 (stereo not shown) [Example 928, 1-(1-Aza-bicyclo[2.2.2]oct-3-yl)-2-methyl-1,6-dihydro-1,3,5,6-tetraaza-as-indacene] | 6.69 | 6.35 | 6.05 | 6.90
18 | COC(=O)N1CCC(n2c([C@@H](C)O)nc3cnc4[nH]ccc4c32)CC1 [Example 929, 4-[2-((R)-1-Hydroxy-ethyl)-6H-1,3,5,6-tetraaza-as-indacen-1-yl]-piperidine-1-carboxylic acid methyl ester] | 6.24 | 6.73 | 6.55 | 6.98
19 | C[C@@H](O)c1nc2cnc3[nH]ccc3c2n1[C@H]1CCN(S(C)(=O)=O)C1 [Example 930, (R)-1-[1-((S)-1-Methanesulfonyl-pyrrolidin-3-yl)-1,6-dihydro-1,3,5,6-tetraaza-as-indacen-2-yl]-ethanol] | 6.02 | 6.72 | 6.46 | 7.06
20 | CCOC(=O)N1CC[C@H](n2c([C@@H](C)O)nc3cnc4[nH]ccc4c32)C1 [Example 931, (S)-3-[2-((R)-1-Hydroxy-ethyl)-6H-1,3,5,6-tetraaza-as-indacen-1-yl]-pyrrolidine-1-carboxylic acid ethyl ester] | 5.73 | 6.04 | 6.63 | 7.19
21 | OC1CCN(Cc2nc3cnc4[nH]ccc4c3n2C2CCCCC2)CC1 [Example 932, 1-(1-Cyclohyl-1,6-dihydro-1,3,5,6-tetraaza-as-indacen-2-ylmethyl)-piperidin-4-ol] | 6.24 | 5.98 | 6.45 | 7.39
22 | CC(O)c1nc2cnc3[nH]ccc3c2n1C1CCN(Cc2cnco2)CC1F (stereo not shown) [Example 933, 1-[1-(3-Fluoro-1-oxazol-5-ylmethyl-piperidin-4-yl)-1,6-dihydro-1,3,5,6-tetraaza-as-indacen-2-yl]-ethanol] | 7.41 | 7.95 | 7.26 | 8.74
23 | CC(O)CN1CCC(n2c(C(C)O)nc3cnc4[nH]ccc4c32)CC1 (stereo not shown) [Example 934, 1-{4-[2-(1-Hydroxy-ethyl)-6H-1,3,5,6-tetraaza-as-indacen-1-yl]-piperidin-1-yl}-propan-2-ol] | 6.17 | 6.26 | 6.33 | 7.89
24 | Cc1noc(CN2CC[C@H](n3c([C@@H](C)O)nc4cnc5[nH]ccc5c43)C2)n1 [Example 935, (R)-1-{1-[(S)-1-(3-Methyl-[1,2,4]oxadiazol-5-ylmethyl)-pyrrolidin-3-yl]-1,6-dihydro-1,3,5,6-tetraaza-as-indacen-2-yl}-ethanol] | 5.98 | 6.40 | 6.27 | 7.18
25 | CC(O)c1nc2cnc3[nH]ccc3c2n1C1CC2CCC1O2 (stereo not shown) [Example 938, 1-[1-(7-Oxa-bicyclo[2.2.1]hept-2-yl)-1,6-dihydro-1,3,5,6-tetraaza-as-indacen-2-yl]-ethanol] | 6.58 | 6.92 | 6.76 | 7.05
26 | C[C@@H](O)c1nc2cnc3[nH]ccc3c2n1C1CC2CCC1C2 (stereo partly drawn) [Example 943, (R)-1-(1-Bicyclo[2.2.1]hept-2-yl-1,6-dihydro-1,3,5,6-tetraaza-as-indacen-2-yl)-ethanol] | 8.09 | 7.73 | 8.53 | 9.24
27 | c1cc2c(ncc3ncn([C@H]4[C@@H]5CNC[C@@H]54)c32)[nH]1 [Example 944, (1R,5S,6S)-1-(3-Aza-bicyclo[3.1.0]hex-6-yl)-1,6-dihydro-1,3,5,6-tetraaza-as-indacene] | 6.05 | 5.61 | 5.74 | 6.64
28 | Cn1ncc2c1CC[C@H](n1cnc3cnc4[nH]ccc4c31)C2 [Example 954, 1-((S)-1-Methyl-4,5,6,7-tetrahydro-1H-indazol-5-yl)-1,6-dihydro-1,3,5,6-tetraaza-as-indacene] | 7.01 | 6.46 | 6.47 | 7.40
